This test relates to human lung fibroblasts. The test can be described thus: Serum-induced fibrosis in biomimetic five-layer lung fibrosis model. Format: cell-based. The settings on record: 2 μM PP2 added to medium 24 hours after assembly, maintained for the study; 0.2% serum in the model; FIG. 20. The source says: The first and second channel slabs and the chamber slab of the model were formed using soft lithography techniques, in which the PDMS mixture was poured over the mold, and the slabs were allowed to cure. The microchannels were etched into each of the channel slabs, with the dimensions of 10 mm×1 mm×0.15 mm (length×width×height). The chamber was etched into the chamber slab, with the dimensions of 6 mm×3 mm×1 mm (length×width×height). See FIG. 9 for a picture of the five-layer model and FIG. 2A-2B for a schematic of the five-layer model.
Next, the cellular physiology of the cell-lined fluidic channels with the gel layer of the five-layer model was examined (FIG. 11). In this instance, the upper channel contained human lung endothelial cells cultured with commercially available medium from the supplying vendor of the cells. The lower channel contained small airway epithelial cells with similar specific medium, both from same vendor. The gel was created by adding collagen to physiological aqueous buffer at a concentration of 2 mg/ml and kept at 4° C. Human lung fibroblasts (100 K cells/ml) were added to the gel during the liquid phase. The side of the membranes facing the chamber slab were treated with sulfo-sanpah to promote collagen/ECM anchorage. The lower channel slab, lower membrane, and chamber slab were stacked. The gel was then pipetted into the chamber. […]

Structures are written as SMILES.

In the case of `CC(C)(C)n1nc(-c2ccc(Cl)cc2)c2c(N)ncnc21` [PP2], the “effect on serum-induced fibrosis” value is reported as “reduced fibrosis”.

For the origin of these results see US11946028B2, “Fibrosis model on a chip” (The Trustees of the University of Pennsylvania, priority 2015, dated 2024).
